Reference: patent US20180092358A1, “HERBICIDAL MIXTURES” (Syngenta Participations AG, priority 2015, published 2018)

Experiments:
Type in all cases: in vivo
Abutilon theophrasti [1] = assay: Pre-emergence herbicidal activity (glasshouse); settings: application pre-emergence, 1000 g/Ha, evaluated after 13 days, scale 0-5
Method: (§1) Seeds of a variety of test species were sown in standard soil in pots. After cultivation for one day (pre-emergence) under controlled conditions in a glasshouse (at 24/16° C., day/night; 14 hours light; 65% humidity), the plants were sprayed with an aqueous spray solution derived from the formulation of the technical active ingredient in acetone/water (50:50) solution containing 0.5% Tween 20 (polyoxyethelyene sorbitan monolaurate, CAS RN 9005-64-5). The test plants were then grown in a glasshouse under controlled conditions (at 24/16° C., day/night; 14 hours light; 65% humidity) and watered twice daily. After 13 days, the test was evaluated (5=total damage to plant; 0=no damage to plant).

Amaranthus retroflexus [2] = assay: Pre-emergence herbicidal activity (glasshouse); settings: application pre-emergence, 1000 g/Ha, evaluated after 13 days, scale 0-5
Method: as §1

Echinochloa crus-galli [3] = assay: Pre-emergence herbicidal activity (glasshouse); settings: application pre-emergence, 1000 g/Ha, evaluated after 13 days, scale 0-5
Method: as §1

Setaria faberi [4] = assay: Pre-emergence herbicidal activity (glasshouse); settings: application pre-emergence, 1000 g/Ha, evaluated after 13 days, scale 0-5
Method: as §1

Zea mays [5] = assay: Pre-emergence herbicidal activity (glasshouse); settings: application pre-emergence, 1000 g/Ha, evaluated after 13 days, scale 0-5
Method: as §1

Abutilon theophrasti [6] = assay: Post-emergence herbicidal activity (glasshouse); settings: application post-emergence, 1000 g/Ha, evaluated after 13 days, scale 0-5
Method: (§2) Seeds of a variety of test species were sown in standard soil in pots. After 8 days cultivation (post-emergence) under controlled conditions in a glasshouse (at 24/16° C., day/night; 14 hours light; 65% humidity), the plants were sprayed with an aqueous spray solution derived from the formulation of the technical active ingredient in acetone/water (50:50) solution containing 0.5% Tween 20 (polyoxyethelyene sorbitan monolaurate, CAS RN 9005-64-5). The test plants were then grown in a glasshouse under controlled conditions (at 24/16° C., day/night; 14 hours light; 65% humidity) and watered twice daily. After 13 days, the test was evaluated (5=total damage to plant; 0=no damage to plant).

Amaranthus retroflexus [7] = assay: Post-emergence herbicidal activity (glasshouse); settings: application post-emergence, 1000 g/Ha, evaluated after 13 days, scale 0-5
Method: as §2

Echinochloa crus-galli [8] = assay: Post-emergence herbicidal activity (glasshouse); settings: application post-emergence, 1000 g/Ha, evaluated after 13 days, scale 0-5
Method: as §2

Setaria faberi [9] = assay: Post-emergence herbicidal activity (glasshouse); settings: application post-emergence, 1000 g/Ha, evaluated after 13 days, scale 0-5
Method: as §2

Zea mays [10] = assay: Post-emergence herbicidal activity (glasshouse); settings: application post-emergence, 1000 g/Ha, evaluated after 13 days, scale 0-5
Method: as §2

Alopecurus myosuroides [11] = assay: Pre-emergence herbicidal activity (glasshouse); settings: application pre-emergence, 1000 g/Ha, evaluated after 13 days, scale 0-5
Method: as §1

Alopecurus myosuroides [12] = assay: Post-emergence herbicidal activity (glasshouse); settings: application post-emergence, 1000 g/Ha, evaluated after 13 days, scale 0-5
Method: as §2

Row | SMILES | damage to plant score, ABUTH (Abutilon theophrasti [1]) | damage to plant score, AMARE (Amaranthus retroflexus [2]) | damage to plant score, ECHCG (Echinochloa crus-galli [3]) | damage to plant score, SETFA (Setaria faberi [4]) | damage to plant score, ZEAMX (Zea mays [5]) | damage to plant score, ABUTH (Abutilon theophrasti [6]) | damage to plant score, AMARE (Amaranthus retroflexus [7]) | damage to plant score, ECHCG (Echinochloa crus-galli [8]) | damage to plant score, SETFA (Setaria faberi [9]) | damage to plant score, ZEAMX (Zea mays [10]) | damage to plant score, ALOMY (Alopecurus myosuroides [11]) | damage to plant score, ALOMY (Alopecurus myosuroides [12])
1 | CCO[C@@H]1C(O)N(c2cc(C(C)(C)C)on2)C(=O)N1C (single isomer, unassigned) [Compound 1.6] | 5 | 5 | 4 | 1 | 2 | 5 | 5 | 5 | 5 | 4 | – | –
2 | CON1C(=O)N(c2cc(C(F)(F)F)ccn2)C(O)C1C (stereo not shown) [Compound 1.1, 4-hydroxy-1-methoxy-5-methyl-3-[4-(trifluoromethyl)-2-pyridyl]imidazolidin-2-one] | 5 | 5 | 4 | 5 | 2 | 5 | 5 | 5 | 5 | 2 | 4 | 5
3 | CC1C(O)N(c2cc(C(F)(F)F)ccn2)C(=O)N1C (stereo not shown) [Compound 1.2, 4-hydroxy-1,5-dimethyl-3-[4-(trifluoromethyl)-2-pyridyl]imidazolidin-2-one] | 5 | 5 | 4 | 5 | 3 | 5 | 5 | 5 | 5 | 4 | 4 | 5
4 | CCOC1C(O)N(c2cc(C(F)(F)F)ccn2)C(=O)N1C (stereo not shown) [Compound 1.3, 5-ethoxy-4-hydroxy-1-methyl-3-[4-(trifluoromethyl)-2-pyridyl]imidazolidin-2-one] | 5 | 5 | 5 | 5 | 3 | 5 | 5 | 5 | 5 | 4 | 4 | 5
5 | CN1CC(O)N(c2cc(C(F)(F)F)ccn2)C1=O (stereo not shown) [Compound 1.4, 4-hydroxy-1-methyl-3-[4-(trifluoromethyl)-2-pyridyl]imidazolidin-2-one] | 5 | 5 | 5 | 4 | 3 | 5 | 5 | 5 | 5 | 5 | 4 | 5
6 | CC1C(O)N(c2cc(C(F)(F)F)n(C)n2)C(=O)N1C (stereo not shown) [Compound 1.5, 4-hydroxy-1,5-dimethyl-3-[1-methyl-5-(trifluoromethyl)pyrazol-3-yl]imidazolidin-2-one] | 5 | 5 | 4 | 4 | 4 | 5 | 5 | 5 | 5 | 4 | 4 | 5
